Laboratory results reported in paper PMC8009478, “Novel Curcumin-Diethyl Fumarate Hybrid as a Dualistic GSK-3β Inhibitor/Nrf2 Inducer for the Treatment of Parkinson’s Disease” (ACS Chemical Neuroscience, 2020).

What was measured:
GSK-3β = GSK-3β (Homo sapiens, UniProt P49841); experiment: Kinetic study of GSK-3β inhibition, competition with ATP (ADP-Glo Kinase Assay); type: biochemical; details: ATP 1 to 50 μM; inhibitors 5 and 10 μM; substrate 25 μM; double reciprocal plot
Procedure: Figure 2 Kinetic data for the curcumin-DEF hybrids 5 and 6. In the reaction mixture, the concentration of compounds employed is reported in the plot, the concentration of the substrate is constant (25 μM), and the concentration of ATP changes from 1 to 50 μM. Each point is the mean of two different experiments analyzed in triplicate.
Kinetic experiments were performed using the ADP-Glo Kinase Assay,[42] in which ATP concentration varied from 1 to 50 μM, the concentrations of inhibitors employed were 5 and 10 μM, while the concentration of GS2 was kept constant (25 μM). Graphs (Figure 2) report the double reciprocal plot of the data.

GSK-3α/β = experiment: Phosphorylation of GSK-3α/β (Ser21/9) by Western blotting; details: SH-SY5Y, 5 μM, after 1 h of incubation

Chain of GSK-3β (P49841 whole entry): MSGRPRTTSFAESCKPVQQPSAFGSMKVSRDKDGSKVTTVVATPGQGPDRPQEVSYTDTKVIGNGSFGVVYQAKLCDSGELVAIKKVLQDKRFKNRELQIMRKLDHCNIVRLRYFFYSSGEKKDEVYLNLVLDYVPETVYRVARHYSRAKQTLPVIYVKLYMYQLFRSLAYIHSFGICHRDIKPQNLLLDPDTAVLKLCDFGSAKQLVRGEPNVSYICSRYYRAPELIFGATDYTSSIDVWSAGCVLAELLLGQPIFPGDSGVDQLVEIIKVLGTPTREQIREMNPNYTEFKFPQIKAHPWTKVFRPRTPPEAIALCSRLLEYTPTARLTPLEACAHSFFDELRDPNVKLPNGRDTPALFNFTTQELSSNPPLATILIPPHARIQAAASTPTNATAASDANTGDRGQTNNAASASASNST

mechanism of inhibition as regards competition with ATP (GSK-3β): noncompetitive inhibitors of ATP binding
SMILES: CCOC(=O)/C=C/C(C(=O)/C=C/c1ccc(OC)cc1)=C(O)\C=C\c1ccc(OCc2ccccc2)cc1 [Compound 5, Ethyl (2E,4Z,6E)-7-(4-(Benzyloxy)phenyl)-5-hydroxy-4-((E)-3-(4-methoxyphenyl)acryloyl)hepta-2,4,6-trienoate]
phospho-GSK-3α/β (Ser21/9) levels (GSK-3α/β): increase phospho-GSK-3α/β (Ser21/9) levels
